# From paper PMC4914680 (Antimicrobial Agents and Chemotherapy, 2016)
# Read-outs that look alike come from different tables or passages of the source.
# Experiments:
# [1] = test system: HIV-1 NL4-3 ΔV370 variant (NLRepRlucP373S/Δ370); assay type: cell-based
# HIV-1 RF = assay: Multiple-cycle assay, laboratory strains; assay type: cell-based; conditions: Human immunodeficiency virus 1
# HIV-1 SF-2 = assay: Multiple-cycle assay, laboratory strains; assay type: cell-based; conditions: Human immunodeficiency virus 1; SF-2, CXCR4, MT-2
# HIV-1 IIIB = assay: Multiple-cycle assay, laboratory strains; assay type: cell-based; conditions: Human immunodeficiency virus 1, CXCR4, MT-2
# HIV-1 HXB2 = assay: Multiple-cycle assay, laboratory strains; assay type: cell-based; conditions: Human immunodeficiency virus 1; HXB2, CXCR4, MT-2
# HIV-1 NL4-3 [2] = assay: Multiple-cycle assay, laboratory strains; assay type: cell-based; conditions: Human immunodeficiency virus 1, NL43; NL4-3, CXCR4, MT-2
# HIV-1 LAI = assay: Multiple-cycle assay, laboratory strains; assay type: cell-based; conditions: Human immunodeficiency virus 1
# HIV-1 Bal = assay: Multiple-cycle assay, laboratory strains; assay type: cell-based; conditions: Human immunodeficiency virus 1, CCR5, PM1
# HIV-1 JRFL = assay: Multiple-cycle assay, laboratory strains; assay type: cell-based; conditions: Human immunodeficiency virus 1, CCR5, PM1
# HIV-2 CBL-20 = assay: Multiple-cycle assay, laboratory strains; assay type: cell-based; conditions: HIV-2 CBL-20, MT-2
# [3] = test system: subtype B gag/pr recombinant viruses; assay: Multiple-cycle Gag/Pr phenotyping assay; assay type: cell-based, HIV-1
# [4] = test system: V370M virus (recombinant virus with gag/pr genes from a clinical isolate); assay: microbe, parasite or virus in culture; assay type: cell-based, HIV-1; conditions: Human immunodeficiency virus 1, MT2, read-out: EC50 (SD)
# HIV-1 integrase = HIV-1 integrase (Human immunodeficiency virus type 1 group M subtype B, UniProt P03366); assay: HIV-1 integrase inhibitor binding assay
# HIV-1 protease = HIV-1 protease (Human immunodeficiency virus type 1 group M subtype B, UniProt P03366); assay: HIV-1 protease assay; assay type: biochemical
# [5] = molecular target: WT HIV-1 VLPs, p25 to p24 (CA/SP1) cleavage (Human immunodeficiency virus type 1 group M subtype B, UniProt P03348); assay: HIV-1 VLP protease cleavage assay; assay type: biochemical; conditions: Western blot
# HIV-1 NL4-3 [6] = assay: Time-of-addition study, NL4-3-infected B6 cells; assay type: cell-based; conditions: single cycle, 24 h postinfection
# [7] = initial / phase 2a clinical studies; cited from earlier work
# in vitro = conditions: dog
# HIV-1 Gag (WT LAI VLPs) = HIV-1 Gag (WT LAI VLPs) (Human immunodeficiency virus type 1 group M subtype B, UniProt P03348); assay: [3H]BMS-955176-Gag binding (SPA)
# [8] = Serum binding assay (ultracentrifugation)
# [9] = test system: HIV-1 subtype A clinical isolates; assay: Drug susceptibility assay using clinical isolates in PBMCs; conditions: Human immunodeficiency virus 1, PBMC
# [10] = test system: HIV-1 subtype C clinical isolates; assay: as above
# [11] = test system: HIV-1 subtype D clinical isolates; assay: as above; conditions: Human immunodeficiency virus 1, PBMC
# [12] = test system: HIV-1 subtype F clinical isolate; assay: as above; conditions: Human immunodeficiency virus 1, PBMC
# [13] = test system: HIV-1 group N clinical isolate; assay: as above; conditions: Human immunodeficiency virus 1, PBMC
# [14] = test system: HIV-1 group O clinical isolates; assay: as above; conditions: Human immunodeficiency virus 1, PBMC
# [15] = test system: viruses from subtypes A, C, D, F, and G; assay: as above; conditions: Human immunodeficiency virus 1, PBMC, read-out: EC50s (range)
# [16] = human, serum
structure (smiles),measurement,setting,value
C=C(C)[C@@H]1CC[C@]2(NCCN3CCS(=O)(=O)CC3)CC[C@]3(C)[C@H](CC[C@@H]4[C@@]5(C)CC=C(c6ccc(C(=O)O)cc6)C(C)(C)[C@@H]5CC[C@]43C)[C@@H]12 [BMS-955176],EC50,"[1]; Human immunodeficiency virus 1, NL43, MT2",13 nM
same,EC50,"[1]; Human immunodeficiency virus 1, NL43, MT2, read-out: EC50 (SD)",13 nM
same,EC50,HIV-1 RF,7.7 ± 1.4 nM
same,EC50,HIV-1 SF-2,11 ± 1.5 nM
same,EC50,HIV-1 IIIB,2.8 ± 0.3 nM
same,EC50,HIV-1 HXB2,11 ± 2 nM
same,EC50,HIV-1 NL4-3 [2],4.7 ± 2.3 nM
same,EC50,HIV-1 LAI,2.6 ± 0.3 nM
same,EC50,HIV-1 Bal,0.7 ± 0.2 nM
same,EC50,HIV-1 JRFL,2.5 ± 0.8 nM
same,EC50,HIV-2 CBL-20,completely resistant
same,EC50,"HIV-2 CBL-20; Human immunodeficiency virus 2, read-out: EC50",> 1200 nM
same,EC50,"[3]; Human immunodeficiency virus 1, read-out: EC50 (mean), full library, None (WT), n=51",3 nM
same,EC50,"[3]; Human immunodeficiency virus 1, read-out: EC50 (mean), full library, T371A/Q/N/S/TT, n=6",4 nM
same,EC50,"[3]; Human immunodeficiency virus 1, read-out: EC50 (mean), full library, V362I, n=5",5.3 nM
same,EC50,"[3]; Human immunodeficiency virus 1, read-out: EC50 (mean), full library, V370A + ΔT371, n=4",12 nM
same,EC50,"[3]; Human immunodeficiency virus 1, read-out: EC50 (mean), full library, V370A, n=7",2 nM
same,EC50,"[3]; Human immunodeficiency virus 1, read-out: EC50 (mean), full library, V370I/L/T, n=4",3 nM
same,EC50,"[3]; Human immunodeficiency virus 1, read-out: EC50 (mean), full library, V370 M, n=9",7 nM
same,EC50,"[3]; Human immunodeficiency virus 1, read-out: EC50 range, V362I-containing viruses, n=5",2 to 9.4 nM
same,EC50,"[3]; Human immunodeficiency virus 1, read-out: EC50 range, all subtype B, n=87",0.7 to 22 nM
same,EC50,"[3]; Human immunodeficiency virus 1, read-out: mean EC50, all subtype B, n=87",3.9 ± 3.4 nM
same,EC50,"[3]; Human immunodeficiency virus 1, read-out: median EC50, V362I-containing viruses, n=5",5.7 nM
same,EC50,"[3]; Human immunodeficiency virus 1, read-out: median EC50, WT subtype B (n=51)",2.5 nM
same,EC50,"[3]; Human immunodeficiency virus 1, read-out: median EC50, all subtype B, n=87",2.8 nM
same,EC50,"[3]; read-out: EC50 (mean), full library, V362I, n=5",5 nM
same,EC50,[4],10 nM
same,IC50,HIV-1 integrase,> 15000 nM
same,IC50,HIV-1 protease,> 10000 nM
same,inhibition of conversion of VLP p25 to p24,[5],inhibited the conversion of HIV-1 WT VLP p25 to p24 in a dose-dependent manner
same,effect on luciferase signal by time of addition,HIV-1 NL4-3 [6],did not inhibit luciferase expression when added any time during infection
same,clinical safety and tolerability,[7],safe and well tolerated
same,CC50,in vitro,3900 nM
same,Ki,HIV-1 Gag (WT LAI VLPs),5.6 nM
same,Kd,"HIV-1 Gag (WT LAI VLPs); Kd values, range of 5 experiments",2.3 to 6 nM
same,Kd,"HIV-1 Gag (WT LAI VLPs); Kd, saturation binding of [3H]BMS-955176 to LAI VLPs",5.5 nM
same,human serum binding,"[8]; 100% human serum, ultracentrifugation method",86%
same,"fraction unbound at 1 h, 0.052 µM","[8]; human, serum",0.14
same,EC50,"[9]; PBMCs, one less sensitive subtype A isolate",280 nM
same,EC50,"[9]; read-out: Mean EC50 ± SD, PBMCs, A, 13 of 14 isolates",26 ± 25 nM
same,EC50,"[9]; read-out: Mean EC50 ± SD, PBMCs, A, 14 isolates",44 ± 72 nM
same,EC50,"[9]; read-out: Median EC50, PBMCs, A, 13 of 14 isolates",20 nM
same,EC50,"[9]; read-out: Median EC50, PBMCs, A, 14 isolates",21 nM
same,EC50,"[9]; read-out: Range EC50, PBMCs, A, 13 of 14 isolates",5 to 87 nM
same,EC50,"[9]; read-out: Range EC50, PBMCs, A, 14 isolates",5 to 280 nM
same,EC50,"[9]; read-out: median EC50 values, Fig 7, PBMCs, A (Group M)",20000 nM
same,EC50,"[10]; Human immunodeficiency virus 1, PBMC, PBMCs, one insensitive subtype C isolate",1400 nM
same,EC50,"[10]; Human immunodeficiency virus 1, PBMC, read-out: Mean EC50 ± SD, PBMCs, C, 13 of 14 isolates",17 ± 11 nM
same,EC50,"[10]; Human immunodeficiency virus 1, PBMC, read-out: Mean EC50 ± SD, PBMCs, C, 14 isolates",116 nM
same,EC50,"[10]; Human immunodeficiency virus 1, PBMC, read-out: Median EC50, PBMCs, C, 13 of 14 isolates",14 nM
same,EC50,"[10]; Human immunodeficiency virus 1, PBMC, read-out: Median EC50, PBMCs, C, 14 isolates",14 nM
same,EC50,"[10]; Human immunodeficiency virus 1, PBMC, read-out: Range EC50, PBMCs, C, 13 of 14 isolates",1 to 45 nM
same,EC50,"[10]; Human immunodeficiency virus 1, PBMC, read-out: median EC50 values, Fig 7, PBMCs, C (Group M)",15000 nM
same,EC50,"[10]; read-out: Range EC50, PBMCs, C, 14 isolates",1 to 1400 nM
same,EC50,[11]; read-out: Median EC50,6 nM
same,EC50,[11]; read-out: Range EC50,1 to 21 nM
same,EC50,[12]; read-out: Mean EC50,5.9 nM
same,EC50,[12]; read-out: Median EC50,6 nM
same,EC50,[12]; read-out: Range EC50,6 nM
same,EC50,[13]; read-out: Mean EC50,7.2 nM
same,EC50,[13]; read-out: Median EC50,7 nM
same,EC50,[13]; read-out: Range EC50,7 nM
same,EC50,"[14]; read-out: Mean EC50 ± SD, PBMCs, group O, 5 isolates",170 ± 240 nM
same,EC50,"[14]; read-out: Median EC50, PBMCs, group O, 5 isolates",30 nM
same,EC50,"[14]; read-out: Range EC50, PBMCs, group O, 5 isolates",1 to 552 nM
same,EC50,[15],5.9 to 87 nM
same,fraction unbound,[16],0.18
